Data taken from patent US9598365B2, “Method for synthesizing cycloalkanyl[b]indoles, cycloalkanyl[b]benzofurans, cycloalkanyl[b]benzothiophenes, compounds and methods of use” (Trustees of Dartmouth College, priority 2012, dated 2017).
Values joined by “and” are separate entries in the source; they are usually repeats but may differ in a detail not shown here. Equal entries are not always repeated.

Assays:
Assay type in all cases: cell-based
[1] = test system: hNCI-H716; assay: hNCI-H716 GLP-1 secretion; details: GLP-1 secretion; for Primary SP hNCI (% Stim.) / activation at 2 µM / activation at 20 µM: single point; for activation at 2 µM / activation at 20 µM: read-out: Primary SP hNCI (% Stim.); for EC50: concentration response curve, read-out: Primary CRC (EC50, μM) hNCI
Source text: Selected compounds of this invention were screened for K-Ras Wnt synthetic lethal, anti-angiogenic activity, Wnt pathway modulatory activity, insulin and GLP-1 secretion modulatory activity, GPR119 receptor agonist activity, mGlu2R antagonist activity, CGRP receptor antagonist activity, Apelin receptor agonist activity and hexokinase 2 inhibitory activity using the PD^2 and TD^2 Screening Panel (Eli Lilly & Company). See Lee, et al. (2011) J. Biomol. Screen. 16:588-602.
(§1) In light of the above results, additional compounds (Table 7) were prepared and phenotypic assays were carried out using hNCI-H716 and mSTC-1 cell lines to monitor GLP-1 secretion (single point (SP) and concentration response curves (CRC)) (Table 8), as well as a secondary assay with pituitary cells (Table 9).

[2] = test system: mSTC-1; assay: mSTC-1 GLP-1 secretion; details: for EC50: concentration response curve, read-out: Primary CRC (EC50, μM) mSTC; for activation at 2 µM / activation at 20 µM: single point, read-out: Primary SP mSTC (% Stim.)
Method: as §1

[3] = test system: mSTC-1; assay: mSTC LDH secretion; details: read-out: Primary CRC (EC50, μM) mSTC LDH
Method: as §1

[4] = test system: hNCI-H716; assay: hNCI basal LDH secretion; details: read-out: Primary CRC (EC50, μM) hNCI Basal
Method: as §1

Compound	activation at 2 µM ([1]; 2 μM)	activation at 20 µM ([1]; 20 μM)	activation at 2 µM [2]	activation at 20 µM [2]	other results
COc1ccc([C@@H]2c3c(n(C)c4ccccc34)[C@H]3C=C[C@@H]2C3)cc1 (racemic) [Compound 11b]	–	–	–	–	Primary SP hNCI (% Stim.) ([1]; 2 μM): −0.5%; Primary SP hNCI (% Stim.) ([1]; 20 μM): −2.4%
Cn1c2c(c3ccccc31)[C@@H](c1ccc(C(F)(F)F)cc1)[C@@H]1C=C[C@H]2C1 (racemic) [Compound 11c]	–	–	–	–	Primary SP hNCI (% Stim.) ([1]; 2 μM): 1%; Primary SP hNCI (% Stim.) ([1]; 20 μM): 0.7%
Cn1c2c(c3ccccc31)[C@@H](c1ccccc1)[C@@H]1C=C[C@H]2C1 [Compound 11a]	-2.8%	-0.5%	–	–	–
Cn1c2c(c3ccccc31)[C@@H](c1ccco1)[C@@H]1C=C[C@H]2C1 [Compound 11d]	-2.5%	-1%	–	–	–
Cn1c2c(c3ccccc31)[C@@H](c1cccs1)[C@@H]1C=C[C@H]2C1 [Compound 11e]	-0.5%	-2.4%	–	–	–
CC[C@@H]1c2c(n(C)c3ccccc23)[C@H]2C=C[C@@H]1C2 [Compound 11f]	-1.1%	-2.4%	–	–	–
Cn1c2c(c3ccccc31)C(C)(C)[C@@H]1C=C[C@H]2C1 [Compound 11g]	-0.8%	-2.7%	–	–	–
Cn1c2c(c3ccccc31)C1(CCC1)[C@@H]1C=C[C@H]2C1 [Compound 11h]	-2.2%	-3.3%	–	–	–
Cn1c2c(c3ccccc31)C1(CCCC1)[C@@H]1C=C[C@H]2C1 [Compound 11i]	0%	-6%	–	–	–
Cn1c2c(c3ccccc31)C1(CCCCC1)[C@@H]1C=C[C@H]2C1 [Compound 11j]	-0.3%	-3.3%	–	–	–
Cn1c2c(c3ccccc31)C1(CCCCC1)[C@@H]1C=C[C@H]2CC1 [Compound 11k]	3.1%	-1.9%	–	–	–
CC1=C(C)CC2(CCCCC2)c2c(n(C)c3ccccc23)C1 [Compound 11l]	-2%	-3.3%	–	–	–
CC1=CCc2c(c3ccccc3n2C)C(c2ccccc2)C1 (stereo not shown) [Compound 11m]	-2.2%	-1%	–	–	–
CC1C=CC(C)C(c2ccccc2)c2c1n(C)c1ccccc21 (stereo not shown) [Compound 11n]	10.3%	-3.5%	–	–	–
CC1(C)c2c(n(Cc3ccccc3)c3ccccc23)[C@H]2C=C[C@@H]1C2 [Compound 11o]	-0.3%	-2.1%	–	–	–
CC1(C)c2c([nH]c3ccccc23)C2C=CC1C2 (stereo not shown) [Compound 11p]	–	–	–	–	Primary SP hNCI (% Stim.) ([1]; 2 μM): −0.5%; Primary SP hNCI (% Stim.) ([1]; 20 μM): 23.3%
COc1ccc2[nH]c3c(c2c1)C(C)(C)C1C=CC3C1 (stereo not shown) [Compound 11q]	–	–	–	–	Primary SP hNCI (% Stim.) ([1]; 2 μM): 1.3%; Primary SP hNCI (% Stim.) ([1]; 20 μM): 5.9%
COC(=O)c1ccc2[nH]c3c(c2c1)C(C)(C)C1C=CC3C1 (stereo not shown) [Compound 11r]	–	–	–	–	Primary SP hNCI (% Stim.) ([1]; 2 μM): −1.1%; Primary SP hNCI (% Stim.) ([1]; 20 μM): 13.4%
CC1(C)c2c([nH]c3ccc(F)cc23)C2C=CC1C2 (stereo not shown) [Compound 11w]	1.4%	41.3%	–	–	EC50 [1]: 22.4 µM and 30.3 µM; EC50 [2]: 23.6 µM and 22.8 µM
CC1(C)c2c([nH]c3ccc(O)cc23)C2C=CC1C2 (stereo not shown) [Compound 11x]	3.4%	-0.8%	–	–	EC50 [1]: > 40 µM; EC50 [2]: > 40 µM

Compound	activation at 2 µM ([1]; 2 μM)	activation at 20 µM ([1]; 20 μM)	activation at 2 µM [2]	activation at 20 µM [2]	other results
CC1(C)c2c([nH]c3ccc(C(F)(F)F)cc23)C2C=CC1C2 (stereo not shown) [Compound 11y]	-0.4%	55.9%	–	–	EC50 [2]: 10.4 µM and 5.88 µM
Cc1ccc(C2CC(C)(C)c3c2[nH]c2ccc(C)cc32)cc1 (stereo not shown) [Compound 19d]	0%	0%	10.3%	53.6%	–
c1ccc(C2CC3(CCCCC3)c3c2[nH]c2ccccc32)cc1 (stereo not shown) [Compound 19e]	0%	0%	78.4%	109%	–
Cc1ccc(C2CC3(CCCCC3)c3c2[nH]c2ccc(C)cc32)cc1 (stereo not shown) [Compound 19g]	0%	0%	34.9%	124%	–
Cc1ccc(C2CC(C)(C)c3c2[nH]c2ccccc32)cc1 (stereo not shown) [Compound 19h]	0%	0%	93.2%	107%	–
CC(=O)Oc1ccc(C2CC3(CCCCC3)c3c2[nH]c2ccccc32)cc1 (stereo not shown) [Compound 19i]	0%	23.4%	13.5%	104%	EC50 [1]: > 40 µM; EC50 [2]: > 40 µM
Cn1c2c(c3ccccc31)C1(CCCC1)CC2c1ccccc1 (stereo not shown) [Compound 19u]	-0.8%	-3.8%	–	–	–
COc1ccc(C2CC3(CCCC3)c3c2n(C)c2ccccc32)cc1 (stereo not shown) [Compound 19v]	-2%	-2.4%	–	–	–
Cc1ccc(C2CC3(CCCC3)c3c2n(C)c2ccccc32)cc1 (stereo not shown) [Compound 19w]	-0.8%	-1.9%	–	–	–
Cn1c2c(c3ccccc31)C1(CCCC1)CC2c1ccc2ccccc2c1 (stereo not shown) [Compound 19x]	-3.1%	-3.3%	–	–	–
CC1(C)C(=O)C[C@]23CCCC[C@]12Nc1ccccc13 [Compound 20]	-0.2%	-1.1%	-4.1%	8.2%	–
O=C1C2CCC1[C@@]1(CCO)c3ccccc3N[C@@H]21 (stereo partly shown) [Compound 21]	4.3%	3.4%	-1%	-2.4%	–
C[C@]12c3ccccc3N[C@H]1C1CCC2C1=O (stereo partly shown) [Compound 22]	-1.5%	-1.3%	-1.8%	7.4%	–
CN1c2ccccc2[C@]2(C)C3CCC(C3=O)[C@H]12 (stereo partly shown) [Compound 23]	6.4%	-1.1%	6.9%	71.3%	EC50 [1]: > 40 µM; EC50 [2]: 6.18 µM; EC50 [3]: > 40 µM; EC50 [4]: > 40 µM
O=C1C2CCC1[C@@]1(CCO)c3ccccc3N(Cc3ccccc3)[C@@H]21 (stereo partly shown) [Compound 24]	1%	4.6%	-3.3%	47.9%	EC50 [1]: > 40 µM; EC50 [2]: 15.2 µM and 13.5 µM; EC50 [3]: > 40 µM; EC50 [4]: > 40 µM
CC1(C)C(=O)C[C@]23CCCC[C@]12N(Cc1ccccc1)c1ccccc13 [Compound 25]	0.6%	-1.1%	78.5%	51.1%	EC50 [1]: > 40 µM; EC50 [2]: 0.2 µM; EC50 [3]: > 40 µM; EC50 [4]: > 40 µM
COC(=O)[C@@H]1CC[C@H](O)[C@@]2(C)c3ccccc3N(C)[C@@H]12 [Compound 26]	1.4%	-1.3%	-2.4%	-3.1%	–
O=C1OC2CCC1[C@]13CCN[C@]21Nc1ccccc13 (stereo partly shown) [Compound 27]	1%	0.4%	-5.1%	-3.9%	–
O=C1OC2CCC1[C@]13CCO[C@]21Nc1ccccc13 (stereo partly shown) [Compound 28]	1.2%	4%	-2.4%	4.4%	–
CC1(C)C(=O)C[C@@]2(C)c3ccccc3N(Cc3ccccc3)[C@@]12C [Compound 30]	3.1%	-0.2%	49.9%	49.9%	EC50 [1]: > 40 µM; EC50 [2]: 0.85 µM and 0.51 µM; EC50 [3]: > 40 µM; EC50 [4]: > 40 µM
